Series [1] concerns normal human dermal fibroblasts (NHDF). Put plainly: MTT assay, viability of NHDF cell culture (ISO 10993 part 5). Type of series: cell-based. The note with it: NHDF cell cultures, 24 h incubation; for IC50: Homo sapiens, MTT, mean (± SD), n = 5. As for the experimental part: The viability of the normal human dermal fibroblasts (NHDF) cell culture after 24 h incubation with the tested compounds 5a-c-7a-c was assessed by carrying out the MTT assay. This test was performed according to ISO 10993 part 5, Appendix C. For all tested compounds, the IC50 values were calculated using four-parameter logistics. Normal human dermal fibroblasts (NHDF) were purchased from the American Type Culture Collection (ATCC) for cytotoxicity evaluation of the tested compounds. The cells were grown in Dulbecco's Modified Eagle Medium DMEM with […] glucose without phenol red supplemented with 10% FBS and 2 mM L-glutamine, and 25 μg/mL gentamicin. The NHDF cells were cultured under standard conditions (5% CO2, 37 °C, and 95% humidity) with evaluation morphology and confluence at least twice a week. For the assay, the cells were used only in a logarithmic growth phase, and the TrypLE solution was used for 2 min at 37 °C to detach cells. Then, the TrypLE solution was inactivated by adding a culture medium, and the suspension of cells was collected into a tube and centrifuged for 5 min at 1000 rpm. Then, the supernatant was removed, fresh medium was added, and the pellet was resuspended and calculated using the […] chamber. The suspension of cells was prepared to allow seeding 10,000 cells/well density and incubated for 24 h to regenerate in CO2-incubator. The tested compounds were dissolved in DMSO to a final concentration of 10 mM and stored at -20 °C. Before use, the compound solution was kept at room temperature until thawing, and then, samples with 3 different concentrations of compounds were prepared (100 μM, 50 μM, and 10 μM) for each compound. The tested concentrations of compounds were prepared in a culture medium. […] The evaluation of the cytotoxicity of the newly synthesized compounds was carried out in accordance with the ISO 10,993 part V standard by performing the MTT test. After seeding at a density of 10,000 cells per well and adhering overnight, the NHDF cells were treated with the test compounds for 24 h in a CO2 incubator. The supernatant was then removed, the cells were washed with PBS, a 1mg/mL solution of MTT dissolved in MEM was added, and the cultures were re-incubated for 2 h in a CO2 incubator. The medium was then removed, and for a further 30 min, the formazan crystals were dissolved in 100 μL of isopropanol. The absorbance was measured with a Varioskan Go microplate reader at a wavelength of 570 nm. […] For enzyme assays, the IC50 was calculated according to the procedure provided by the kit manufacturer. The significance was set at p < 0.05. Based on the tests performed, the test power was calculated to be greater than 80%.

The target in series [2] is T1, 15-LOX (Glycine max, UniProt P08170).
T1 sequence (P08170 1-839): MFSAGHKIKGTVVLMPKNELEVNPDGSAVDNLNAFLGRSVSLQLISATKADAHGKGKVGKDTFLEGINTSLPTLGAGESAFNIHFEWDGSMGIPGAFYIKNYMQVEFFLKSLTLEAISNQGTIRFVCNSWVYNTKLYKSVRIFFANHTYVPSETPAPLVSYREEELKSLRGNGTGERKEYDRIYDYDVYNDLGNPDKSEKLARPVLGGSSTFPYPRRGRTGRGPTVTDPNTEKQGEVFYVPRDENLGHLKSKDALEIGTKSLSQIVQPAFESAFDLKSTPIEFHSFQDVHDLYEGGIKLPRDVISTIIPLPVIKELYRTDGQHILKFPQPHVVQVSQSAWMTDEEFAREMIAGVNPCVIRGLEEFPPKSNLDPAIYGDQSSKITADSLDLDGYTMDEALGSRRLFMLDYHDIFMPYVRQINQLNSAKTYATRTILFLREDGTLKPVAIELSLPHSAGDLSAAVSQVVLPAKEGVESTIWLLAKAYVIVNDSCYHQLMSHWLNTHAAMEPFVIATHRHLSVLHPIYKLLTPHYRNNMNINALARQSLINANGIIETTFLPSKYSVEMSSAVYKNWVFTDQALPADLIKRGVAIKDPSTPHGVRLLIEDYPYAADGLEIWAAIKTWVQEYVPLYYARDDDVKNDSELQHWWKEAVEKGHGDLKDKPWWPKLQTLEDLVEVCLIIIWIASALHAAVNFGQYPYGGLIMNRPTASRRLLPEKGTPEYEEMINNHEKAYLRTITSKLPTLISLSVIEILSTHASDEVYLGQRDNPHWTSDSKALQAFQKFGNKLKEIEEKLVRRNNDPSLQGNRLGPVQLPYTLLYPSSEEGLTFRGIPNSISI
Put plainly: 15-LOX inhibition, Cayman's Lipoxygenase Inhibitor Screening Assay Kit.

Series [3] concerns the target T2, COX-1 (Ovis aries, UniProt P05979).
T2 sequence (P05979 25-600): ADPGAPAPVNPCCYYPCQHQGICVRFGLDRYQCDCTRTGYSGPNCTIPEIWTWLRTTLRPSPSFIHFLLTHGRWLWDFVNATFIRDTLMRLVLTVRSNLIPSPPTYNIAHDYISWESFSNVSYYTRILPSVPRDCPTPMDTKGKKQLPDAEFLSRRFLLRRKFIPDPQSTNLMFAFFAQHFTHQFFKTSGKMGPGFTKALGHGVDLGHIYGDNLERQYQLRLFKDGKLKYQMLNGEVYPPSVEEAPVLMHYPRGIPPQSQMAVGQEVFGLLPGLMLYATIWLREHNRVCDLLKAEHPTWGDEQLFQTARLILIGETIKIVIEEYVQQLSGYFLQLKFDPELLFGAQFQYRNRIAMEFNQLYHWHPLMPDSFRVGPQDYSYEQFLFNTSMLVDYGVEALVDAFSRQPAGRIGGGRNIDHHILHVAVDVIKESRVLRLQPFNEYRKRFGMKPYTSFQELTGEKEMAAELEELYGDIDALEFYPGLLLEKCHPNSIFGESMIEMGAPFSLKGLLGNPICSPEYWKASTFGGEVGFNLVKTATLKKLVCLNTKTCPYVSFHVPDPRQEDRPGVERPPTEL
Put plainly: COX-1 inhibition, Cayman's COX Colorimetric Inhibitor Screening Assay Kit.

Series [4] has as its target T3, COX-2 (Homo sapiens, UniProt P35354).
T3 sequence (P35354 18-604): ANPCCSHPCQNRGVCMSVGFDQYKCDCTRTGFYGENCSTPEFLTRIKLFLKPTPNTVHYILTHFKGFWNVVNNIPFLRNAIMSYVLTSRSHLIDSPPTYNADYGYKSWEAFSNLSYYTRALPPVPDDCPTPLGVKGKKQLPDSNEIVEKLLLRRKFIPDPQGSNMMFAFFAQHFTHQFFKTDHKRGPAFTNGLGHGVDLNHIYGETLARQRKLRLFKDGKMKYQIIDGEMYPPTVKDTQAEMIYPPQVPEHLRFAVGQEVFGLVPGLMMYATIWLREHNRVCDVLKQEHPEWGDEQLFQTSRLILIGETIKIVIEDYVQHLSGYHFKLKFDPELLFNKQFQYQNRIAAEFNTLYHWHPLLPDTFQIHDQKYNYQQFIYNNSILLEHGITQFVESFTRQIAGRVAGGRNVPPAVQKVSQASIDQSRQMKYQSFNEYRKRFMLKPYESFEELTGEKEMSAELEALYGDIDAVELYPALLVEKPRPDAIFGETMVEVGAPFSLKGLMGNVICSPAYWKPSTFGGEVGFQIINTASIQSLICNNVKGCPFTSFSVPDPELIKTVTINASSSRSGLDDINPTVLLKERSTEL
Put plainly: COX-2 inhibition, Cayman's COX Colorimetric Inhibitor Screening Assay Kit. The note with it: for Selectivity Index (SI): COX-2 IC50/COX-1 IC50.

Data on six compounds can be found in article PMC10383271.

Usually IC50 stands for the point on the concentration scale where inhibition reaches its midpoint. Low values mean higher potency, high ones lower potency. A word on the melting point: it is the temperature, or range, at which the solid turns liquid. Regarding `Cc1c2c(OCC(=O)N/N=C/c3ccccc3O)nn(C)c(=O)c2c(C)n1-c1cccc(Cl)c1` [Compound 6c, 2-[6-(3-chlorophenyl)-3,5,7-trimethyl-4-oxo-pyrrolo[3,4-d]pyridazin-1-yl]oxy-N-[(Z/E)-(2-hydroxyphenyl)methyleneamino]acetamide], the melting point lay in the range of 230 to 232 °C. In series [1], half-maximal inhibition (IC50) required 211 ± 9.6 µM and the “Cell Morphology in Culture” value is given as “Normal morphology of fibroblasts–elongated cells, single granular cells in 1 of 10 assessed fields of view”. Also, in series [2], the IC50 was determined as 14.7 ± 0.02 µM. In addition, it took 76.8 ± 6 µM to reach half-maximal inhibition in series [3] (IC50). In series [4], the IC50 is 9.8 ± 3.1 µM and the “Selectivity Index (SI)” value is 0.13.
Compound `Cc1c2c(OCC(=O)N/N=C/c3ccccc3O)nn(C)c(=O)c2c(C)n1-c1ccccc1` [Compound 6b, N-[(Z/E)-(2-hydroxyphenyl)methyleneamino]-2-(3,5,7-trimethyl-4-oxo-6-phenyl-pyrrolo[3,4-d]pyridazin-1-yl)oxy-acetamide] registered a melting point of 214 to 217 °C. Also, in series [1], the IC50 is 80.7 ± 1.9 µM and the “Cell Morphology in Culture” value is given as “Cells with an elongated shape characteristic of fibroblasts, the granularities were observed in 3–5 fields of view from 10 analyzed fields”. In series [2], this compound came in with a concentration for half-maximal inhibition (IC50) of 13.7 ± 0.03 µM. This compound also showed an IC50 in series [3] of 97.7 ± 6.8 µM. Moreover, in series [4], the IC50 turned out to be 27.7 ± 2.5 µM and the “Selectivity Index (SI)” value is recorded as 0.28.
As for `Cc1ccc(/C=N/NC(=O)COc2nn(C)c(=O)c3c(C)n(-c4cccc(Cl)c4)c(C)c23)cc1` [Compound 7c, 2-[6-(3-chlorophenyl)-3,5,7-trimethyl-4-oxo-pyrrolo[3,4-d]pyridazin-1-yl]oxy-N-[(Z/E)-p-tolylmethyleneamino]acetamide], the melting point was in the range of 248 to 250 °C. Also, in series [1], the midpoint of inhibition, the IC50, lay at 81.6 ± 5.1 µM and the “Cell Morphology in Culture” value is recorded as “Cells with an elongated shape characteristic of fibroblasts, the granularities were observed in 3–5 fields of view from 10 analyzed fields”. The compound also registered a half-inhibitory concentration (IC50) in series [2] of 13.3 ± 0.02 µM. In addition, the “effect on COX-1 isoform (in words)” value in series [3] (enzymatic assay) is “does not affect the COX-1 isoform”. For the same compound, 22.7 ± 2.5 µM corresponded to half-maximal inhibition in series [4] (IC50).
As for `CCCCn1c(C)c2c(OCC(=O)N/N=C/c3ccccc3O)nn(C)c(=O)c2c1C` [Compound 6a, 2-(6-butyl-3,5,7-trimethyl-4-oxo-pyrrolo[3,4-d]pyridazin-1-yl)oxy-N-[(Z/E)-(2-hydroxyphenyl)methyleneamino]acetamide], the melting point is 225 to 227 °C. In addition, in series [1], the IC50 was 88.7 ± 4.1 µM and the “Cell Morphology in Culture” value is recorded as “Cells with an elongated shape characteristic of fibroblasts, the granularities were observed in 3–5 fields of view from 10 analyzed fields”. For the same compound, the IC50 in series [2] was determined as 13.6 ± 0.03 µM. In series [3], this compound registered an IC50 of 89.2 ± 4.1 µM. In series [4], the IC50 stood at 16.4 ± 1.1 µM and the “Selectivity Index (SI)” value amounted to 0.18.
In turn, `Cc1ccc(/C=N/NC(=O)COc2nn(C)c(=O)c3c(C)n(-c4ccccc4)c(C)c23)cc1` [Compound 7b, N-[(Z/E)-p-tolylmethyleneamino]-2-(3,5,7-trimethyl-4-oxo-6-phenyl-pyrrolo[3,4-d]pyridazin-1-yl)oxy-acetamide] had a melting point of 271 to 272 °C. In series [1], the half-maximal inhibitory concentration (IC50) is 181 ± 8.7 µM and the “Cell Morphology in Culture” value was “Normal morphology of fibroblasts-elongated cells, single granular cells in 1 of 10 assessed fields of view”. The 50% inhibitory concentration (IC50) in series [2] came to 13.7 ± 0.07 µM. Also, the IC50 in series [3] is 91.5 ± 5.1 µM. In addition, in series [4], the 50% inhibitory concentration (IC50) amounted to 24.5 ± 2.1 µM and the “Selectivity Index (SI)” value is listed as 0.27.
In turn, `CCCCn1c(C)c2c(OCC(=O)N/N=C/c3ccc(C)cc3)nn(C)c(=O)c2c1C` [Compound 7a, 2-(6-butyl-3,5,7-trimethyl-4-oxo-pyrrolo[3,4-d]pyridazin-1-yl)oxy-N-[(Z/E)-p-tolylmethyleneamino]acetamide] had a melting point of 209 to 211 °C. In series [1], inhibition was half-maximal at 116 ± 3.6 µM (IC50) and the “Cell Morphology in Culture” value is listed as “Cells with an elongated shape characteristic of fibroblasts, the granularities were observed in 3–5 fields of view from 10 analyzed fields”. The same compound showed a half-inhibitory concentration (IC50) in series [2] of 15.3 ± 2.1 µM. Also, in series [3], the half-inhibitory concentration (IC50) was found to be 93.8 ± 4.2 µM. Further, in series [4], the IC50 came to 16.1 ± 1.8 µM and the “Selectivity Index (SI)” value was determined as 0.17.
